For data set [1], the system named is male mice (CD1 Charles RAivers). As to the kind of experiment: Hypothermic activity. The format is in vivo. As to conditions: Mus musculus, read-out: Effective dose (-1° C.). How it is done: (§1) The test is carried out on male mice (CD1 Charles RAivers) weighing 25-30 g, having fasted for 6 hours.
The temperature of the body is noted by means of a thermocouple inserted about 1.5 cm in the rectum and connected to an electric temperature recorder.
The products are administered by oral or sub-cutaneous route and the temperatures are noted at the instant 0 and at 30 minutes, 1 hour, 2 hours and 2 and a half hours after treatment.
The degree of hypothermia is evaluated as the difference between the treated animals and the controls, and the dose necessary to reduce the body temperature by 1° C. is noted.

For data set [2] the test system is unchanged. As to the kind of experiment: Variation of the body temperature (duration of action). The format is in vivo. How it is done:
as §1
The temperature of the body is noted by means of a thermocouple inserted about 1.5 cm in the rectum and connected to an electric temperature recorder. […]
The duration of action of the products is determined, using the doses able to reduce the temperature by 1° to 1.5° C.

The nature of data set [3]: Diarrhoeic activity. Details: species or system mice. The following applies: mouse, in vivo; oral route; dose which causes diarrhoea in 50% of the animals; read-out: DE50 (the source's name). Here is the method: The test is carried out on male mice (CD1 Charles Rivers) weighing […], after fasting for 6 hours. The product dissolved at 5% in methocel is administered by oral route by means of an oesophage probe.
Control animals receive only the excipient.
After treatment, the animals are placed separately in cages of which the base is covered with blotting paper, and they are put under observation for 30, 60, 120 and 180 minutes.
The sheets of absorbent paper are changed after each observation.
The consistency of the feces is evaluated according to the method of Randall and Baruth (Arch. Int. Pharmacodyn. 220, 94, 1976) according to the following scale of values.
1: feces slightly soft, with or without a damp halo
2: feces slightly soft, with a well defined circle of humidity.
3: feces soft with a large circle of humidity.
4: feces without consistency with a very large circle of humidity.
For each product, the dose is noted which causes diarrhoea in 50% of the animals according to the method of Miller and Tainter (Proc. Soc. Exp. Biol. Med., 57, 261, 1944).

Data set [4] relates to ileum isolated from guinea-pig. Kind of data set: Test of ileum isolated from guinea-pig, agonist (contracting) activity. The following applies: Cavia porcellus; negative logarithm of the dose which produces 50% of the maximum effect; read-out: pD2 (converted). How it is done:
Pieces of ileum are removed from guinea-pigs killed by decapitation. The isolated ileum is placed in 10 cm^3 of Tyrode solution at 37° C. and aerated with a mixture of oxygen (95%) and carbon dioxide gas (5%). The contractions due to the products are registered by means of a detector connected to a polygraph. The products to be tested are added at concentrations between 1.10^-3 M and 1.10^-8 M/l.
The products presenting a contracting effect are tested vis-a-vis atropine and hexamethonium in order to establish if the activity is of "muscarine" or "nicotine" type.
The agonist activity is expressed in pD2 (negative logarithm of the dose which produces 50% of the maximum effect).

Data set [5] can be described thus: Acute toxicity, oral. The arrangement: species or system mice. As to conditions: mouse, in vivo, mortality during 7 days.
Description: The test was carried out on male mice (CD1 Charles Rivers), of 22 to 24 g, having fasted for 16 hours. […] The mortality is noted during the 7 days following the treatment.

Counter-ions that a name gives are not always drawn. Like-named read-outs stand apart in the source and are kept apart here. Bounds are passed on as bounds.

Broadly, the LD50 is the dose expected to kill half of the subjects tested. A high value points to lower toxicity.

In the case of `COC(=O)C1=CCCN(C)C1` [Arecoline HBr, reference compound], the ED (-1 C) worked out at 194 mg/kg in data set [1] (O.R. (oral route)) and 3 mg/kg in data set [1] (SC.R (sub-cutaneous route)). Further, the “Variations of the body temperature” value in data set [2] (os, 200 mg/kg, 30 min) is -1.1 °C; in data set [2] (os, 200 mg/kg, 60 min), -1.0 °C; in data set [2] (os, 200 mg/kg, 120 min) it was -0.2 °C; in data set [2] (os, 200 mg/kg, 180 min), -0.1 °C; in data set [2] (sc, 3.5 mg/kg, 30 min), -1.5 °C; in data set [2] (sc, 3.5 mg/kg, 60 min), -0.1 °C. The “Variations of the body temperature” value in data set [2] (sc, 3.5 mg/kg, 120 min) was “+0.2 °C”; in data set [2] (sc, 3.5 mg/kg, 180 min), “+0.2 °C”.
As to `CON=CC1=CCCN(O)C1` [Example 1, Hydrochloride of the methyl ether of 1-hydroxy-1,2,5,6-tetrahydropyridin-3-carboxaldehyde oxime], the ED50 in data set [3] was determined as 0.5 mg/kg. For the same compound, the values for the ED (-1 C) in data set [1] (O.R. (oral route)) and in data set [1] (SC.R (sub-cutaneous route)) were 0.19 mg/kg and 0.2 mg/kg, respectively. The “Variations of the body temperature” value in data set [2] (os, 0.25 mg/kg, 30 min) was -1.4 °C; in data set [2] (os, 0.25 mg/kg, 60 min) it was -1.2 °C; in data set [2] (os, 0.25 mg/kg, 120 min) it was -0.1 °C; in data set [2] (os, 0.25 mg/kg, 180 min), -0.1 °C; in data set [2] (sc, 0.25 mg/kg, 30 min), -1.4 °C; in data set [2] (sc, 0.25 mg/kg, 60 min), -1.1 °C. Further, the “Variations of the body temperature” value was -0.1 °C in data set [2] (sc, 0.25 mg/kg, 120 min) and -0.1 °C in data set [2] (sc, 0.25 mg/kg, 180 min). Moreover, the EC50 in data set [4] is 4.17 µM. This compound also returned an LD50 at 168 h in data set [5] of 60 mg/kg.
Take `CCOC(=O)ON1CCC=C(C=NOC)C1` [Example 6, Methyl ether of 1-ethoxy carbonyloxy-1,2,5,6-tetrahydropyridin-3-carboxaldehyde oxime]: the ED50 in data set [3] stood at 0.6 mg/kg. Further, the ED (-1 C) was found to be 0.26 mg/kg in data set [1] (O.R. (oral route)) and 0.24 mg/kg in data set [1] (SC.R (sub-cutaneous route)). Moreover, the “Variations of the body temperature” value in data set [2] (os, 0.35 mg/kg, 30 min) was -1.3 °C; in data set [2] (os, 0.35 mg/kg, 60 min) it was -1.1 °C; in data set [2] (os, 0.35 mg/kg, 120 min), -0.1 °C; in data set [2] (sc, 0.35 mg/kg, 30 min), -1.4 °C; in data set [2] (sc, 0.35 mg/kg, 60 min), -1.1 °C; in data set [2] (sc, 0.35 mg/kg, 120 min), -0.1 °C. Moreover, the “Variations of the body temperature” value in data set [2] (sc, 0.35 mg/kg, 180 min) is “+0.1 °C”. The EC50 in data set [4] was 11.5 µM. The compound further had an LD50 at 168 h in data set [5] of 125 mg/kg.
As to `CON=CC1=CCCN(OC(=O)c2ccccc2)C1` [Example 7, Methyl ether of 1-benzoyloxy-1,2,5,6-tetrahydropyridin-3-carboxaldehyde oxime], the ED50 in data set [3] was 1.5 mg/kg. Also, the ED (-1 C) in data set [1] (O.R. (oral route)) stood at 0.42 mg/kg; in data set [1] (SC.R (sub-cutaneous route)), 0.21 mg/kg. Moreover, the “Variations of the body temperature” value in data set [2] (os, 0.5 mg/kg, 30 min) is -1.1 °C; in data set [2] (os, 0.5 mg/kg, 60 min), -0.9 °C; in data set [2] (os, 0.5 mg/kg, 180 min) it was “+0.1 °C”; in data set [2] (sc, 0.25 mg/kg, 30 min) it was -1.2 °C; in data set [2] (sc, 0.25 mg/kg, 60 min), -0.9 °C; in data set [2] (sc, 0.25 mg/kg, 180 min), “+0.1 °C”. In data set [4], the EC50 is above 100 µM. Besides, the LD50 at 168 h in data set [5] stood at 90 mg/kg.

The values are drawn from US4902699A, “Oxime of 1, 2, 5, 6-tetrahydropyridine compounds their use as medicaments and the compositions containing them” (Roussel Uclaf, priority 1987, dated 1990).
